This note sets out measurements from paper PMC10484737 (Nucleic Acids Research, 2023).

“Also recorded” adds a separate entry of the source.

The target of series [1] is T1, TsaN^1−392 (TsaD domain of TsaN) (Pandoravirus salinus, UniProt A0A291ATS8).
T1 sequence (A0A291ATS8 1-392): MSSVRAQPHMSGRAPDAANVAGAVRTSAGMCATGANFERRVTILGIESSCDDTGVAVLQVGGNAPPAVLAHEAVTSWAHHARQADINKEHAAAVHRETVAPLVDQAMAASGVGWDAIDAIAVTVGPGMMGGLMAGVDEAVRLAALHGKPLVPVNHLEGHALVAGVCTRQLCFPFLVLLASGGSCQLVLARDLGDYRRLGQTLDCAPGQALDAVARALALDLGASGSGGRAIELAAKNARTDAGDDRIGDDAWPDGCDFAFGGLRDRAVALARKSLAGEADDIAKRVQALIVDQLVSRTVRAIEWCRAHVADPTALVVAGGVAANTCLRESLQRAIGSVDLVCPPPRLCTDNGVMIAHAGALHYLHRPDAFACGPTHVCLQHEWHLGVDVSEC
In words: ITC, nucleotide binding to the TsaD domain. Details: species or system P. salinus. Conditions: for ΔG / ΔH: 30 μM TsaN^1−392 titrated with 360 μM ligand. Background: Isothermal titration calorimetry measures the heat released or taken up as one component is titrated into another.

The target in series [2] is T2, TsaN^749−1008 (TcdA domain of TsaN) (Pandoravirus salinus, UniProt A0A291ATS8).
T2 sequence (A0A291ATS8 749-1008): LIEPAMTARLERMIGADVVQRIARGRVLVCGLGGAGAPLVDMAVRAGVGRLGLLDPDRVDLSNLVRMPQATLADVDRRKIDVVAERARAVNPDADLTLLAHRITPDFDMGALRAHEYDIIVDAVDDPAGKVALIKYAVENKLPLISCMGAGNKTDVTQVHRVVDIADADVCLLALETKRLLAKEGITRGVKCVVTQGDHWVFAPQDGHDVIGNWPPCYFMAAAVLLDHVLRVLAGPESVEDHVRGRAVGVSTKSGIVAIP
The series is described as follows: ITC, ligand binding to the TcdA domain. Details: species or system P. salinus.

In series [3] the test system is TsaN^749−1008. The series is described as follows: Enzymatic assay of ct^6A, LC–MS. In kind it is biochemical, P. salinus. Particulars: for ct^6A formation from synthetic t^6A in the presence of the nucleotide (ct^6A/t^6A): TsaN^749−1008 and synthetic t^6A plus ATP, AMPCPP, AMP or AMP + PPi.
Series [4] deals with TsaN^H155A/H159A. In words: NADH-coupled ATPase assay. In kind it is biochemical, P. salinus. Particulars: 5 μM TsaN^H155A/H159A.
Series [5] concerns the target TsaN^(1−392)H155A/H159A. The series is described as follows: ITC, ATP binding to the TsaD domain variant. More on the design: species or system P. salinus. Particulars: 30 μM TsaN^(1−392)H155A/H159A titrated with 360 μM ligand.
Series [6] has as its target T3, TsaN (Pandoravirus salinus, UniProt A0A291ATS8).
T3 sequence (A0A291ATS8 1-1008): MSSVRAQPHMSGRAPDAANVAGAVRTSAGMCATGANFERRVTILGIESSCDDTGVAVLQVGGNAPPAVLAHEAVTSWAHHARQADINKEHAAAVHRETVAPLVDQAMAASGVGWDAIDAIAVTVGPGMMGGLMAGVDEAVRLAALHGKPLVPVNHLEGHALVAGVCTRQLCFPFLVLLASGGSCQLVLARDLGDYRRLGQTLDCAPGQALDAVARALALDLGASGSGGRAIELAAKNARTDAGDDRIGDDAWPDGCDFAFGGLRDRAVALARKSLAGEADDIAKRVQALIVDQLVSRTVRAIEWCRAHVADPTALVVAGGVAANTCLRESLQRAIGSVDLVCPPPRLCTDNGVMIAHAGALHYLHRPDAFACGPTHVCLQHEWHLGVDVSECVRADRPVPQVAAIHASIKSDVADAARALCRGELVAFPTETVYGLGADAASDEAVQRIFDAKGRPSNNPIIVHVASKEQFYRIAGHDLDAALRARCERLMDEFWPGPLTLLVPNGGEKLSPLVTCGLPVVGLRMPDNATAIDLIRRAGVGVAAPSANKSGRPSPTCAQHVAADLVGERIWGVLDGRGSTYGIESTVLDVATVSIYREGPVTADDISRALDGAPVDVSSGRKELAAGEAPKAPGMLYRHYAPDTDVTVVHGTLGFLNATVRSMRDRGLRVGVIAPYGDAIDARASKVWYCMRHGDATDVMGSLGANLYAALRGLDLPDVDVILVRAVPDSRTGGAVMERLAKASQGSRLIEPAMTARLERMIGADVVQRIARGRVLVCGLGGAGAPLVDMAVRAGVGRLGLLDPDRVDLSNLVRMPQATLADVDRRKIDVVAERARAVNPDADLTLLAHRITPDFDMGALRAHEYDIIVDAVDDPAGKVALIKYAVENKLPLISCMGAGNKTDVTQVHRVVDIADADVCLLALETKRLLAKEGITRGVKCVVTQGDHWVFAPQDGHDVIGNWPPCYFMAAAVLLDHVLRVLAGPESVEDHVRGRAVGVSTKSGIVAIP
The series is described as follows: Effect of divalent metal ions on biosynthesis of t^6ADP and t^6ATP. Conditions: pre-bound metals removed by dialysis with EDTA. In kind it is biochemical, P. salinus.

Series [7] deals with Pandoravirus salinus TsaN (TsaD-TsaC-SUA5-TcdA modular protein), full length (Pandoravirus salinus). In words: SEC. On the technique in general: SEC sorts molecules by how far they enter the pores of the column.
Series [8] shares this target. The series is described as follows: SEC-MALS.
The target in series [9] is TsaN^749-1008 (TcdA domain of P. salinus TsaN) (Pandoravirus salinus). In words: SEC-MALS.
Substrate in series [10]: Nc1ncnc2c1ncn2[C@@H]1O[C@H](COP(=O)(O)OP(=O)(O)OP(=O)(O)O)[C@@H](O)[C@H]1O
The series is described as follows: NADH-coupled ATPase assay. In kind it is biochemical, P. salinus. Particulars: 25°C, pH 7.5.

The mark [11] stands for this setting: 30 μM TsaN^749−1008 titrated with 360 μM ligand.
The mark [12] stands for this setting: 30 μM TsaN^749−1008, 360 μM ligand, in the presence of 100 μM synthetic t^6A.
Where [13] appears, read: other: 5 μM TsaN^1−392, varying ATP.

As to `Nc1ncnc2c1ncn2[C@@H]1O[C@H](CO)[C@@H](O)[C@H]1O` [A, adenosine], in [1], the ΔG result is on record as “No binding” and the ΔH entry was “No binding”. Also, in series [2] (setting [11]), the “K D” value is “not able to determine the binding; also recorded: No binding”, the “N (sites)” value is “No binding”, the ΔG result is given as “No binding” and the ΔH entry was “No binding”.

Turning to `Nc1ncnc2c1ncn2[C@@H]1O[C@H](COP(=O)(O)OP(=O)(O)O)[C@@H](O)[C@H]1O` [ADP], the “ITC binding to AMP-bound TsaN^1-392” value in series [1] (30 μM AMP-bound TsaN^1-392 titrated with 360 μM ADP, data not shown) is given as “no binding curves”. In [1], this molecule registered a ΔG of -7.05 kcal/mol and a ΔH of -2.74 ± 0.62 kcal/mol. Further, in series [2] (setting [11]), the “K D” value is reported as “not able to determine the binding; also recorded: No binding”, the “N (sites)” value is recorded as “No binding”, the ΔG result is given as “No binding” and the ΔH result was “No binding”.

Take `Nc1ncnc2c1ncn2[C@@H]1O[C@H](COP(=O)(O)CP(=O)(O)OP(=O)(O)O)[C@@H](O)[C@H]1O` [AMPCPP]: the “ct^6A formation from synthetic t^6A in the presence of the nucleotide (ct^6A/t^6A)” value (from here on “ct^6A formation from synthetic t^6A”) in [3] is listed as “not observed the formation of ct^6A”. In addition, in series [2] (setting [12]), the “K D” value is recorded as “not observed a binding signal; also recorded: No binding”, the “N (sites)” value is on record as “No binding”, the ΔG result is listed as “No binding” and the ΔH result was “No binding”.

In series [1], `Nc1ncnc2c1ncn2[C@@H]1O[C@H](COP(=O)(O)O)[C@@H](O)[C@H]1O` [AMP] registered a ΔG of -6.49 kcal/mol and a ΔH of -4.74 ± 1.46 kcal/mol. For the same molecule, the “ct^6A formation from synthetic t^6A” value in [3] is “not observed the formation of ct^6A”. Besides, in series [2] (setting [11]), the “K D” value is reported as “not able to determine the binding; also recorded: No binding”, the “N (sites)” value is reported as “No binding”, the ΔG result is given as “No binding” and the ΔH entry is recorded as “No binding”.

`Nc1ncnc2c1ncn2[C@@H]1O[C@H](COP(=O)(O)OP(=O)(O)OP(=O)(O)O)[C@@H](O)[C@H]1O` [ATP]: the “production of ADP in the ATPase assay” value in [4] was “not detected”. For the same molecule, in [3], the “ct^6A formation from synthetic t^6A” value is reported as “efficient conversion of t^6A to ct^6A”. The ATP hydrolysis result in [3] (in the absence of synthetic t^6A, data not shown) is given as “not hydrolyzed”. In series [2] (setting [11]), the “K D” value was “not able to determine the binding; also recorded: No binding”, the “N (sites)” value is on record as “No binding”, the ΔG result is listed as “No binding” and the ΔH result was “No binding”. Moreover, the “K D” value in series [5] was “does not bind; also recorded: No binding”.

In the case of `Nc1ncnc2c1ncn2[C@@H]1O[C@H](CO[P@](=O)(O)O[P@](=O)(O)O[P@@](=O)(O)S)[C@@H](O)[C@H]1O` [ATPγS], in series [1], the affinity, expressed as Kd, was 10.9 ± 8.91 µM; the ΔG is -6.77 kcal/mol; the ΔH is -6.02 ± 2.38 kcal/mol.

Regarding `[Cl][Mn][Cl]` [MnCl2], the “effect of divalent metal ion on catalytic activity of TsaN (t^6A/A)” value in [6] is on record as “stimulated the catalytic activity”.

“Pandoravirus salinus TsaN (TsaD-TsaC-SUA5-TcdA modular protein), full length (enzyme)”: the stoichiometry N in series [7] and in series [8] was 2 each time.

As to “TsaN^749-1008 (TcdA domain of P. salinus TsaN) (domain or fragment)”, in series [9], the stoichiometry N (commonly a count of units in the complex or per binding partner) was 2.

B1: TsaN (Pandoravirus salinus) (protein)
chain: T3 sequence (A0A291ATS8 1-1008)
Turning to B1, in [10] (other: 5 μM TsaN, varying ATP), the Michaelis constant (Km) (commonly the substrate concentration at which the rate is half of its maximum) was 40 µM and the Vmax – broadly, the rate approached at saturating substrate – turned out to be 0.015 µM/s.

B2: TsaN^1−392 (Pandoravirus salinus) (protein)
chain: T1 sequence (A0A291ATS8 1-392)
As for B2, in series [10] (setting [13]), the Km was 40 µM and the maximal velocity (Vmax) worked out at 0.015 µM/s.
